Results taken from publication PMC7583350 (Journal of medicinal chemistry, 2018).
Entries after “also recorded” stand apart in the source; their conditions may differ.

Key:
MIA PaCa-2 cells = assay: Co-treatment with gemcitabine, MIA PaCa-2 pancreatic cancer cells; assay type: cell-based, human; conditions: GEM-sensitive, 15 μM IAP inhibitor, 24 hrs co-treatment
BxPC3 cells = assay: Co-treatment with gemcitabine, BxPC3 pancreatic cancer cells; assay type: cell-based, human; conditions: 15 μM IAP inhibitor, 24 hrs co-treatment
PANC-1 cells = assay: Co-treatment with gemcitabine, PANC-1 pancreatic cancer cells; assay type: cell-based, human; conditions: GEM-resistant, 15 μM IAP inhibitor, 24 hrs co-treatment
H929 cells = assay: MTS assay, multiple myeloma cell line H929; assay type: cell-based, human; conditions: LCL161-sensitive MM cell line, 48 hr, 20 μM
L363 cells = assay: MTS assay, multiple myeloma cell line L363; assay type: cell-based, human; conditions: LCL161-sensitive MM cell line, 48 hr, 20 μM
MOLT-4 cells [1] = conditions: cited from earlier work
MOLT-4 cells [2] = assay: Cell viability of MOLT-4 cells; assay type: cell-based, human; conditions: MOLT-4, 48 hrs
BIR2 domain of XIAP = BIR2 domain of XIAP (Homo sapiens, UniProt P98170); assay: DELFIA assay, BIR2 domain of XIAP; assay type: binding; conditions: supplementary Table S1
BIR2 domain of XIAP, sequence (P98170 152-236 limits assumed): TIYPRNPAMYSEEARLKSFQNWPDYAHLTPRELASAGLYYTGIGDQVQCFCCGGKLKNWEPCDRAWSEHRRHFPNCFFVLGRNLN

| Affinity for the BIR2 domain of XIAP (BIR2 domain of XIAP) | SMILES | Effect in combination with gemcitabine, MIA PaCa-2 (MIA PaCa-2 cells) | Effect in combination with gemcitabine, BxPC3 (BxPC3 cells) | Effect in combination with gemcitabine, PANC-1 (PANC-1 cells) | Growth inhibition H929 (H929 cells) | Growth inhibition L363 (L363 cells) | Sensitivity of MOLT-4 cell line (MOLT-4 cells [1]) | Activity in cell viability assay (MOLT-4 cells [2]) |
| --- | --- | --- | --- | --- | --- | --- | --- | --- |
|  | CN[C@@H](C)C(=O)N[C@@H](Cc1cc(C)c(C(F)(F)F)cc1F)C(=O)N1CCC[C@H]1C(=O)N[C@@H]1CCc2c(F)cccc21 [Compound 31] | modest significant additive effect | significantly restore growth inhibition by gemcitabine; also recorded: significant synergism | significantly restore growth inhibition by gemcitabine; also recorded: significant synergism |  |  |  |  |
| only modest affinity | CN[C@@H](C)C(=O)N[C@H](C(=O)N1CCC[C@H]1c1nc(C(=O)c2ccc(F)cc2)cs1)C1CCCCC1 [LCL161] |  | significantly restore growth inhibition by gemcitabine | significantly restore growth inhibition by gemcitabine | particularly active | particularly active | insensitive | not particularly active; also recorded: less potent than both compound 34 and compound 31 |
